Data as given in US6436682B1, “Luciferases, fluorescent proteins, nucleic acids encoding the luciferases and fluorescent proteins and the use thereof in diagnostics, high throughput screening and novelty items” (Prolume, Ltd., priority 1998, dated 2002).
Where two headings read alike, the source gives them in different places.

T1: Renilla luciferase (Renilla reniformis, UniProt P27652)
T1 sequence (P27652 1-311): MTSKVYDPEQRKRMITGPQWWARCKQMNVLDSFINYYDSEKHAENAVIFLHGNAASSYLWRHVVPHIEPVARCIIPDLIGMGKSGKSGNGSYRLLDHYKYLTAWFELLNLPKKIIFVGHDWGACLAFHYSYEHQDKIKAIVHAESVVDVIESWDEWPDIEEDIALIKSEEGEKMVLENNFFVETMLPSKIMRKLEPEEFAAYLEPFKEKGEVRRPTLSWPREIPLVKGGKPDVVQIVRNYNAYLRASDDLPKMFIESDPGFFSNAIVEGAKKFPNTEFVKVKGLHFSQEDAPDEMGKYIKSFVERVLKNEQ

B1: Renilla mulleri GFP: green fluorescent protein of Renilla mulleri, 238 amino acids, SEQ ID No. 16 (protein, listed as Renilla mulleri)
chain: MSKQILKNTCLQEVMSYKVNLEGIVNNHVFTMEGCGKGNILFGNQLVQIRVTKGAPLPFAFDIVSPAFQYGNRTFTKYPNDISDYFIQSFPAGFMYERTLRYEDGGLVEIRSDINLIEDKFVYRVEYKGSNFPDDGPVMQKTILGIEPSFEAMYMNNGVLVGEVILVYKLNSGKYYSCHMKTLMKSKGVVKEFPSYHFIQHRLEKTYVEDGGFVEQHETAIAQMTSIGKPLGSLHEWV
modifications: Renilla mulleri Green Fluorescent Protein (GFP)

Columns and labels:
Renilla luciferase = molecular target: T1, Renilla luciferase; conditions: cited from earlier work
[1] = format: physicochemical
Source text: Coelenterazine is not terribly soluble in non-irritant vehicles. Coelenterazine is soluble to at least to a concentration of 200 micrograms/mL in a solution of 2% (w/v) PEG 400 containing about 0.8% (w/v) NaCl. Although this solution is slightly hypertonic, it is not an irritant for vehicle purposes.

mice = assay: Repeated i.p. administration, gross signs of toxicity in behavior; format: in vivo; conditions: 1 mg/kg i.p., daily administration for three days
Protocol: […] Mice are examined over the course of the study for any gross signs of toxicity as evidenced in their behavior. At the end of the one-week period, blood is collected by cardiac puncture immediately prior to sacrifice. Animals are sacrificed and ten different tissue samples are removed post mortem from each animal. Isolated tissues are fixed, stained, blocked and sectioned. The pathology of the tissue samples are analyzed and the toxicology data are compiled.

HeLa cells = assay: Functional expression of Renilla mulleri GFP in mammalian cells; format: cell-based; conditions: 30 micrograms pcDNA-Renilla mulleri GFP DNA, 37° C., 8 hours, CMV promoter
Source text: HeLa cells were transfected with the plasmid pcDNA3.1(+) containing Renilla mulleri GFP under the control of a CMV promoter (construct No. B(1) as described above). […]
The fluorescence was localized to pairs of cells that were undergoing, or apparently had recently undergone, a single round of cell-division. […] This is in contrast to the Aequorea GFP, which folds inefficiently into a functional form under the physiological conditions.
Filters (470/40 excitation filter, 495 excitation dichroic filter and 525/50 emission filter) used in visualization of R. mulleri GFP fluorescence in HeLa cells were the Endo GFP filter set sold by Chroma.

[2] = Renilla luciferase, in the presence of Renilla GFP
[3] = Renilla luciferase, without GFP

Molecule | bioluminescence quantum yield (Renilla luciferase; [2]) [%] | bioluminescence quantum yield (Renilla luciferase; [3]) | peak of emitted light (Renilla luciferase; luciferase, upon addition of GFP) [nm] | solubility [1] [micrograms/mL] | gross behavior changes (mice) | increase in the amount of light emitted upon addition of GFP (Renilla luciferase; Renilla luciferase, with versus without GFP) | fluorescence of transfected cells (HeLa cells)
O=C(Cc1ccc(O)cc1)NC1N=CC(c2ccccc2)=NC1Cc1ccccc1 (stereo not drawn) [coelenterazine of formula (V)] | 2.3 | about 0.012% | 509 | – | – | – | –
coelenterazine | 13 | 6.9% | – | ≥ 200 | no gross behavior changes | nearly two-fold | –
B1 | – | – | – | – | – | – | highly fluorescent
